Molecular target: Kv1.3 (Homo sapiens, UniProt P22001)
Assay: not given
Details: cited from earlier work

Chain of Kv1.3 (P22001 whole entry): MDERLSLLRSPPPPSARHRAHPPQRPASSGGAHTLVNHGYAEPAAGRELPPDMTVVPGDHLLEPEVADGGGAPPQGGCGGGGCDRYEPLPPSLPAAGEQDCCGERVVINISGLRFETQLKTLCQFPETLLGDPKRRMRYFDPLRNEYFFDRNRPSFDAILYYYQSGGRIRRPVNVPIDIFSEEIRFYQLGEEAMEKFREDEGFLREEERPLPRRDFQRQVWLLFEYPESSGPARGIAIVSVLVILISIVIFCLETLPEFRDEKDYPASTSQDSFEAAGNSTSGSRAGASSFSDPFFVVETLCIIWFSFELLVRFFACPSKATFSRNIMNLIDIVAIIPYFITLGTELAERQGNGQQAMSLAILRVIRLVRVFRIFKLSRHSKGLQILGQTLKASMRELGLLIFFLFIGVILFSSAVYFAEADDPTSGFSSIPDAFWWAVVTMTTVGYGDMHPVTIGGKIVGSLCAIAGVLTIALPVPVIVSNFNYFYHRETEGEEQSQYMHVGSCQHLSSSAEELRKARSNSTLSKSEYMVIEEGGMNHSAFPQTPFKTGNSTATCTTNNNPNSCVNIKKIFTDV

| SMILES | blocking activity on the Kv1.3 channel |
| --- | --- |
| COc1c(C(C)=O)c(O)c(OC)c2occc12 [Khellinone] | exhibit blocking activity |

Same assay, conditions: result in words; cited from earlier work

| SMILES | blocking activity on the Kv1.3 channel |
| --- | --- |
| COc1c2occc2cc2ccc(=O)oc12 [Compound 8-MOP, 8-Methoxypsoralen] | exhibit blocking activity |

System: peripheral blood mononuclear cells
Assay: [3H]-thymidine incorporation (proliferation), anti-CD3 stimulated
Format: cell-based
Details: Homo sapiens, PBMC; Table 9; 5 ng/ml anti-CD3 Ab for 48 h
From the text: [^3H]-thymidine incorporation is a widely used test to assay the proliferative activity of human and rodent lymphocytes. As cells divide [^3H]-thymidine will be incorporated into the newly synthesised DNA of the resulting daughter cells. The faster cells grow the more radioactive [^3H]-thymidine will be incorporated. Any compound that inhibits lymphocytes proliferation will reduce the uptake of radioactivity by the cells treated with it compared to the untreated controls.
The selected compounds were tested to determine its ability to inhibit [^3H]-thymidine incorporation and the results are set out in table 6 below. Resting peripheral blood mononuclear cells from healthy volunteers were seeded at 2×10^5 cells per well in medium (RPMI 1640 supplemented 10% fetal calf serum, 2 mM glutamine, 1 mM sodium pyruvate, 1% nonessential amino acids, 100 units/ml penicillin, 100 μg/ml streptomycin and 50 μM β-mercaptoethanol) in flat-bottom 96 well plates (final volume 200 μl). Cells were pre-incubated with the compound of example 2 for 60 min, and were stimulated with 5 ng/ml anti-CD3 Ab for 48 h. [^3H]-Thymidine (1 μCi per well) was added for the last 6 h. Cells were harvested onto glass fibre filters and radioactivity measured in a scintillation counter. All experiments were done in triplicate. Results are normalised for maximum [^3H]-thymidine incorporation by control.

| SMILES | EC50 [nM] |
| --- | --- |
| COc1c(C(C)=O)c(O)c(OCc2ccc(Br)cc2)c2occc12 [Compound 55] | 2500 |
| COc1c(O)c(C(C)=O)c(OCc2ccc(Cl)cc2)c2ccoc12 [Compound 22] | 2500 |
| COc1c(C(C)=O)c(O)c(OCCCc2ccccc2)c2occc12 [Compound 41] | 1000 |

System: not given
Assay: not given
Details: not given

| SMILES | melting point [°C] |
| --- | --- |
| COc1c(O)c(C(C)=O)c(OCc2ccc(C(=O)O)cc2)c2ccoc12 [Compound 32] | 183 to 186 |
| COc1c(C(C)=O)c(O)c(OCc2ccc(C(F)(F)F)cc2)c2occc12 [Compound 56] | 90 to 91 |
| COc1c(O)c(C(C)=O)c(OCc2ccc(OC(F)(F)F)cc2)c2ccoc12 [Compound 29] | 130 to 131 |
| COc1c(O)c(C(C)=O)c(OCCCCCCCOc2c(C(C)=O)c(O)c(OC)c3occc23)c2ccoc12 [Compound 87] | 122 to 125 |
| CC(=O)c1c(O)c(OCc2ccccc2)c2occc2c1OCc1ccccc1 [Compound 82] | 74 to 76 |
| COc1c(C(C)=O)c(O)c(OCc2ccc(COc3c(O)c(C(C)=O)c(OC)c4ccoc34)cc2)c2occc12 [Compound 95] | 184 to 186 |
| COc1c(C(C)=O)c(O)c(OCc2ccc(C(C)C)cc2)c2occc12 [Compound 57] | 80 to 83 |
| COc1c(O)c(C(C)=O)c(OCc2cccc([N+](=O)[O-])c2)c2ccoc12 [Compound 20] | 160 to 162 |
| COc1c(C(C)=O)c(O)c(OCc2cccc(COc3c(O)c(C(C)=O)c(OC)c4ccoc34)c2)c2occc12 [Compound 94] | 125 to 128 |
| COc1c(O)c(C(C)=O)c(OCc2ccccc2-c2ccccc2)c2ccoc12 [Compound 14] | 126 to 127 |
| COc1c(C(C)=O)c(O)c(OCc2ccc(Br)cc2)c2occc12 [Compound 55] | 106 to 107 |
| COc1c(O)c(C(C)=O)c(OCCCCCOc2c(C(C)=O)c(O)c(OC)c3occc23)c2ccoc12 [Compound 85] | 139 to 141 |
| COc1c(C(C)=O)c(O)c(OCc2ccc(C(=O)O)cc2)c2occc12 [Compound 63] | 208 to 209 |
| COc1c(O)c(C(C)=O)c(OCc2ccc(COc3c(C(C)=O)c(O)c(OC)c4occc34)cc2)c2ccoc12 [Compound 89] | 201 to 203 |
| COc1c(O)c(C(C)=O)c(OCCCCOc2c(C(C)=O)c(O)c(OC)c3occc23)c2ccoc12 [Compound 84] | 209 to 211 |
| COc1c(O)c(C(C)=O)c(OCc2cccc(COc3c(C(C)=O)c(O)c(OC)c4occc34)c2)c2ccoc12 [Compound 88] | 184 to 186 |
| COc1c(O)c(C(C)=O)c(OCc2ccc(C(C)C)cc2)c2ccoc12 [Compound 25] | 73 to 75 |
| COc1c(O)c(C(C)=O)c(OCc2cccc(OC(F)(F)F)c2)c2ccoc12 [Compound 19] | 86 to 88 |
| COc1c(C(C)=O)c(O)c(OCCCCCCOc2c(O)c(C(C)=O)c(OC)c3ccoc23)c2occc12 [Compound 92] | 109 to 111 |
| COc1c(O)c(C(C)=O)c(OCCCCCCOc2c(C(C)=O)c(O)c(OC)c3occc23)c2ccoc12 [Compound 86] | 147 to 151 |
| COc1c(O)c(C(C)=O)c(OCc2ccc(C(C)(C)C)cc2)c2ccoc12 [Compound 26] | 82 to 87 |
| COc1c(O)c(C(C)=O)c(OCc2ccc(F)cc2)c2ccoc12 [Compound 21] | 100 to 102 |
| COc1c(O)c(C(C)=O)c(OCc2ccc(C(F)(F)F)cc2)c2ccoc12 [Compound 24] | 104 to 106 |
| COc1c(C(C)=O)c(O)c(OCc2ccc(C(C)(C)C)cc2)c2occc12 [Compound 58] | 117 to 118 |
| COc1c(O)c(C(C)=O)c(OCc2ccc(Cl)cc2)c2ccoc12 [Compound 22] | 106 to 108 |
| COc1c(O)c(C(C)=O)c(OCc2ccc(C(=O)c3ccccc3)cc2)c2ccoc12 [Compound 31] | 132 to 134 |
| COc1c(C(C)=O)c(O)c(OCCCCCOc2c(O)c(C(C)=O)c(OC)c3ccoc23)c2occc12 [Compound 91] | 132 to 134 |

The remaining lines, values ahead:

| melting point [°C] | SMILES |
| --- | --- |
| 104 to 107 | COc1c(C(C)=O)c(O)c(OCc2ccccc2Cl)c2occc12 [Compound 45] |
| 99 to 100 | COc1c(C(C)=O)c(O)c(OCc2ccc(F)cc2)c2occc12 [Compound 53] |
| 102 to 104 | COc1c(C(C)=O)c(O)c(OCCc2ccccc2)c2occc12 [Compound 40] |
| 110 | COc1c(C(C)=O)c(O)c(OCc2ccc(Cl)cc2)c2occc12 [Compound 54] |
| 94 to 95 | COc1c(O)c(C(C)=O)c(OCCCc2ccccc2)c2ccoc12 [Compound 8] |
| 157 to 159 | COc1c(C(C)=O)c(O)c(OCc2cccc([N+](=O)[O-])c2)c2occc12 [Compound 52] |
| 118 to 120 | COc1c(C(C)=O)c(O)c(OCc2ccc(OCc3ccccc3)cc2)c2occc12 [Compound 61] |
| 89 to 91 | COc1c(C(C)=O)c(O)c(OCc2cccc(F)c2)c2occc12 [Compound 48] |
| 28 | COc1c(C(C)=O)c(O)c(OCCCCc2ccccc2)c2occc12 [Compound 42] |
| 99 to 101 | COc1c(O)c(C(C)=O)c(OCc2cccc(C)c2)c2ccoc12 [Compound 17] |
| 114 to 115 | COc1c(C(C)=O)c(O)c(OCc2ccc3ccccc3c2)c2occc12 [Compound 38] |
| 93 to 94 | COc1c(O)c(C(C)=O)c(OCc2ccccc2)c2ccoc12 [Compound 6] |
| 126 to 127 | COc1c(C(C)=O)c(O)c(OCc2ccc(-c3ccccc3)cc2)c2occc12 [Compound 59] |
| 118 to 121 | COc1c(O)c(C(C)=O)c(OCc2cccc(F)c2)c2ccoc12 [Compound 15] |
| 96 to 98 | COc1c(O)c(C(C)=O)c(OCc2cccc3ccccc23)c2ccoc12 [Compound 4] |
| 101 to 103 | COc1c(O)c(C(C)=O)c(OCc2ccccc2C)c2ccoc12 [Compound 13] |

| melting point [°C] | SMILES |
| --- | --- |
| 115 to 117 | COc1c(C(C)=O)c(O)c(OCc2ccccc2-c2ccccc2)c2occc12 [Compound 47] |
| 84 to 86 | COc1c(O)c(C(C)=O)c(OCc2ccccc2Cl)c2ccoc12 [Compound 12] |
| 121 to 122 | COc1c(O)c(C(C)=O)c(OCCCCc2ccccc2)c2ccoc12 [Compound 9] |
| 86 to 88 | COc1c(C(C)=O)c(O)c(OCc2ccccc2C)c2occc12 [Compound 46] |
| 108 to 111 | COc1c(O)c(C(C)=O)c(OCc2cccc(Cl)c2)c2ccoc12 [Compound 16] |
| 105 to 108 | COc1c(O)c(C(C)=O)c(OCc2ccccc2F)c2ccoc12 [Compound 11] |
| 163 to 167 | COc1c(O)c(C(C)=O)c(OCc2ccc(-c3ccccc3)cc2)c2ccoc12 [Compound 27] |
| 81 to 82 | COc1c(C(C)=O)c(O)c(OCc2cccc(C)c2)c2occc12 [Compound 50] |
| 105 to 108 | COc1c(C(C)=O)c(O)c(OCc2cccc(Cl)c2)c2occc12 [Compound 49] |
| 79 to 80 | COc1c(C(C)=O)c(O)c(OCc2ccccc2)c2occc12 [Compound 39] |
| 121 to 122 | COc1c2occc2c(OCCCCc2ccccc2)c2c(=O)cc(C)oc12 [Compound 99] |
| 155 to 157 | COc1c(O)c(C(C)=O)c(OCc2ccc(OCc3ccccc3)cc2)c2ccoc12 [Compound 30] |
| 89 to 92 | COc1c(C(C)=O)c(O)c(OCc2ccccc2F)c2occc12 [Compound 44] |
| 36 | COc1c(C(C)=O)c(O)c(OCCCc2ccccc2)c2occc12 [Compound 41] |
| 31 to 32 | COc1c(C(C)=O)c(O)c(OCCCCCc2ccccc2)c2occc12 [Compound 43] |

Source: patent US8063093B2, “Potassium channel blockers and uses thereof” (priority 2005, dated 2011)
